ChEMBL document CHEMBL3797133, “Structure-Based Design of an Iminoheterocyclic β-Site Amyloid Precursor Protein Cleaving Enzyme (BACE) Inhibitor that Lowers Central Aβ in Nonhuman Primates” (J Med Chem, 2016)

Key:
[1] = in vivo; conditions: rat, brain homogenate, po, 10 mg/kg
[2] = in vivo; conditions: rat, brain/plasma, po, 10 mg/kg

concentration at 6 h [1]: 88 nM | Kp at 6 h [2]: 0.4
SMILES: COc1nc(N2C[C@H]3C(=O)N(C)C(N)=N[C@@]3(c3c(F)ccc(F)c3F)C2)nc(C)c1F
